Key:
HeLa cells = assay: Time-lapse mitotic timing / mitotic arrest duration in HeLa cells; format: cell-based, human; conditions: for median arrest time / median mitotic arrest duration: HeLa; for median arrest time: 10 µM STLC (FIG. 6D); for median mitotic arrest duration: 10 µM STLC (FIG. 5E); for Mitotic time (min), HeLa: in the presence of 10 µM STLC with the indicated drug or RNAi treatment, mean ± standard deviation, two replicates
Method: (§1) Mitotic arrest duration in the presence of 10 µM STLC for control HeLa compared to the ΔM1 and M1-stop mutant cell lines with the indicated drug or RNAi treatment (see FIGS. 3F, 9D). Indicated is the mean mitotic duration ± standard deviation across two experimental replicates. Statistics from Mann-Whitney Test (**** = p < 0.0001, NS = not significant).
(§2) HeLa, hTERT-RPE1, U2OS, and A549 cell lines were cultured in Dulbecco’s modified Eagle medium (DMEM) supplemented with 10% fetal bovine serum (FBS), 100 U/mL penicillin and streptomycin, and 2 mM L-glutamine at 37° C. with 5% CO2. Doxycycline-inducible cell lines were cultured in medium containing FBS certified tetracycline free. Cas9 expression in inducible CRISPR/Cas9 cell lines was induced with 1 µg/ml doxycycline hyclate (##) at 24 hr interval for 2 days. Other drugs used on human cells were Nocodazole (##, 330 nM), S-trityl-L-cysteine (STLC, ##, 10 µM), Taxol (##, 1 µM), GSK923295 (CENP-E inhibitor, ##, 100 nM), proTAME (APC/Ci, ##, 12 µM), AZ-3146 (Mps1i, ##, 4 µM) unless concentration indicated otherwise in figure legend. Cells were enriched in mitosis with treatment with 330 nM nocodazole for 16-17 hrs. Cell lines were tested monthly for mycoplasma contamination.
(§3) Cells were later moved to CO2-independent media (##) before imaging at 37° C. Phase contrast images were acquired on a Nikon eclipse microscope equipped with a charge-coupled device (CCD) camera (Clara, Andor) or a CMOS camera (##) using a Plan Fluor 20X/0.5 NA objective at either 5 min or 10 min intervals. Time-lapse movies were analyzed using Fiji (ImageJ, NIH), ilastik (##) and CellProfiler (##). Image brightness and contrast was adjusted in Fiji, pixel-based classification was performed on individual images using ilastik and the resulting probability map images were processed by CellProfiler to identify and track mitotic cells. Each mitotic cell was then confirmed manually and the mitotic duration was determined as the time from cell rounding at mitotic entry to cell flattening after mitotic exit.

[1] = test system: ΔM1 mutant cell line (HeLa lacking the canonical M1 ATG start codon of CDC20); assay: Time-lapse mitotic arrest duration in ΔM1 mutant cell line; format: cell-based, human; conditions: for Mitotic time (min), ΔM1: in the presence of 10 µM STLC with the indicated drug or RNAi treatment, mean ± standard deviation, two replicates; for mitotic arrest / mitotic exit behaviour in the presence of STLC: ΔM1 cells, 10 µM STLC alone or with the named agent
Method: as §1, §2
(§4) Stable clonal cell lines lacking the canonical full-length Cdc20 protein were obtained by transfecting HeLa cells with pX330-based plasmids [Cong 2013] expressing spCas9 and either the sgM1 (for ΔM1 mutant) or the sgExon1 guide RNA (for M1-stop mutant). pX330-based plasmids were transfected using Xtremegene-9 (##) together with a mCherry-expressing plasmid and mCherry-positive cells were fluorescence activated cell-sorted into 96 well plates with one cell per well. Clones were screened for successful gene editing and the CDC20 allele sequence information was determined by next-generation sequencing (Genewiz Amplicon-EZ).
as §3

[2] = test system: M1-stop mutant cell line (HeLa lacking full-length Cdc20); assay: Time-lapse mitotic arrest duration in M1-stop mutant cell line; format: cell-based, human; conditions: for mitotic arrest / mitotic exit behaviour in the presence of STLC: M1-stop cells, 10 µM STLC alone or with the named agent; for Mitotic time (min), M1-stop: in the presence of 10 µM STLC with the indicated drug or RNAi treatment, mean ± standard deviation, two replicates
Method: as §1, §2, §4, §3

U2OS cells = assay: Time-lapse mitotic arrest duration in U2OS cells; format: cell-based, human; conditions: for median arrest time: U2OS, 10 µM STLC (FIG. 6D)
Method: (§5) FIGS. 6A-6D show downstream in-frame Cdc20 translation initiation influences the mitotic slippage behavior of cancer cell lines. (FIG. 6A) Mitotic arrest duration of individual HeLa, U2OS, or A549 cells treated with 10 µM STLC alone or with a combination of STLC and siRNA treatment (either control siRNAs or Cdc20 siRNAs). Cells entering mitosis in the first 600 min (HeLa) or 700 min (U2OS/A549) of time lapse experiments were included in analyses. Open red circles indicate cells that exit mitosis. Closed black circles indicate cells that remained arrested in mitosis till the end of the time lapse. Blue circles indicate cells that die in mitosis. Bars correspond to median. Indicated are the median mitotic duration times across two experimental replicates. (FIG. 6B) Western blot of mitotically-enriched U2OS cells expressing endogenous Cdc20 protein or upon Cdc20 replacement with either wild-type CDC20 cDNA or a CDC20 M43L M88L mutant construct. Cells were enriched in mitosis with 10 µM STLC for 18 hrs. Cdc20 protein was detected using antibodies recognizing the human Cdc20 C-terminus (aa 450-499). β-actin was used as loading control. (FIG. 6C) Western blot similar to (B) for A549 cells except that ectopic constructs were induced with 50 ng/ml doxycycline. (FIG. 6D) Top, schematic illustrating the Cdc20 replacement strategy with siRNA-resistant 5′ UTR-CDC20 cDNA constructs from a doxycycline-inducible promoter combined with depletion of endogenous Cdc20 protein by siRNA treatment. Cells were treated with 10 ng/ml (HeLa/U2OS) or 50 ng/ml (A549) doxycycline. […]
(§6) Cells were later moved to CO2-independent media (##) before imaging at 37° C. […] Time-lapse movies were analyzed using Fiji (ImageJ, NIH), ilastik (##) and CellProfiler (##). […] Each mitotic cell was then confirmed manually and the mitotic duration was determined as the time from cell rounding at mitotic entry to cell flattening after mitotic exit.

A549 cells = assay: Time-lapse mitotic arrest duration in A549 cells; format: cell-based, human; conditions: for median arrest time: 10 µM STLC (FIG. 6D)
Method: as §5, §6

HEC-6 cells = assay: Mitotic arrest duration in HEC-6 cells; format: cell-based; conditions: 10 µM STLC (FIG. 14C)
Description: (FIG. 14B) HEC-6 cells express reduced levels of full-length Cdc20 protein and thus higher relative levels of the alternative Cdc20 isoforms, compared to control HeLa cells.

[3] = Cdc20 replacement with Cdc20 M43L M88L
[4] = Cdc20 replacement with wild-type CDC20 construct

## N[C@@H](CSC(c1ccccc1)(c1ccccc1)c1ccccc1)C(=O)O [STLC, S-trityl-L-cysteine]
HeLa cells; [3]
  median arrest time: 2110 min
HeLa cells; [4]
  median arrest time: 1755 min
HeLa cells; endogenous Cdc20 replaced with altATGmutx2 mutant construct
  median mitotic arrest duration: 1370 min
HeLa cells; endogenous Cdc20 replaced with wild-type siRNA-resistant CDC20 construct
  median mitotic arrest duration: 1810 min
HeLa cells; STLC-treated HeLa, 10 µM STLC alone (FIG. 6A)
  median mitotic arrest time: 1645 min
HeLa cells; control HeLa, 10 µM STLC, time-lapse (FIG. 3A)
  time arrested in mitosis after mitotic entry: > 10 h
HeLa cells; listed as STLC/DMSO
  Mitotic time (min), HeLa: 780±203 (n=103) min
HeLa cells; listed as STLC/siCtrl
  Mitotic time (min), HeLa: 805±168 (n=122) min
[1]; listed as STLC/DMSO
  Mitotic time (min), ΔM1: 60±24 (n=97) min
[1]; listed as STLC/siCtrl
  Mitotic time (min), ΔM1: 65±37 (n=88) min
[1]
  mitotic arrest / mitotic exit behaviour in the presence of STLC: exit mitosis within a few hours
[2]
  mitotic arrest / mitotic exit behaviour in the presence of STLC: exit mitosis within a few hours
[2]; listed as STLC/DMSO
  Mitotic time (min), M1-stop: 67±12 (n=85) min
[2]; listed as STLC/siCtrl
  Mitotic time (min), M1-stop: 70±18 (n=90) min
U2OS cells; STLC-treated U2OS, 10 µM STLC alone (FIG. 6A)
  median mitotic arrest time: 805 min
U2OS cells; [3]
  median arrest time: 1100 min
U2OS cells; [4]
  median arrest time: 690 min
A549 cells; A549, Cdc20 replacement with Cdc20 M43L M88L
  median arrest time: 1140 min
A549 cells; A549, Cdc20 replacement with wild-type CDC20 construct
  median arrest time: 920 min
A549 cells; STLC-treated A549, 10 µM STLC alone (FIG. 6A)
  median mitotic arrest time: 780 min
HEC-6 cells
  mitotic arrest duration compared to control HeLa cells: reduced mitotic arrest duration compared to control HeLa cells

## AZ3146
[1]
  mitotic arrest / mitotic exit behaviour in the presence of STLC: not exacerbated further
[2]
  mitotic arrest / mitotic exit behaviour in the presence of STLC: further reduce the arrest

## COC(=O)[C@H](CCCN=C(NC(=O)OCOC(=O)Cc1ccccc1)NC(=O)OCOC(=O)Cc1ccccc1)NS(=O)(=O)c1ccc(C)cc1 [proTAME]
[1]
  mitotic arrest / mitotic exit behaviour in the presence of STLC: suppressed the premature mitotic exit
[2]
  mitotic arrest / mitotic exit behaviour in the presence of STLC: suppressed the premature mitotic exit
